The values that follow come from patent US12528767B2, “HDAC6 inhibitors and uses thereof” (Eikonizo Therapeutics, Inc., priority 2019, dated 2026).

Each structure is given as a SMILES string. Several values for one entry are separate records, joined by “and”; a condition that tells them apart may be missing. Identical values can stand only once. Like-named read-outs stand apart in the source and are kept apart here. Where only a bound is given, the exact number is not on record here.

Series [1] concerns tubulin acetylation (acTubK40) in undifferentiated SH-SY5Y cells. Nature of the series: Tubulin acetylation in cells (Western immunoblot). The format is cell-based. The conditions noted are these: Homo sapiens, 4 hours, acetylTubulin/Tubulin ratio. As to the method:
(§1) Compound EC50 Determination for Tubulin- and Histone H3 Acetylation in Cells
(§2) Estimation of the EC50 for exemplary compounds to alter target protein acetylation in undifferentiated SH-SY5Y cells was performed using standard Western immunoblotting methods. […] SH-SY5Y cells were grown to 90% confluency on sterile cell growth plates. 10 mM compound stocks prepared in DMSO and two-fold serial dilutions were prepared from the stock and applied to cells to achieve a 12-point concentration range in cell media from an upper limit of 10 μM to a lower limit of DMSO [zero compound].
(§3) Cells were incubated under normal growth conditions (37° C., 5% CO2) in the presence of compound for 4 hours, then media was aspirated and cells were rinsed two times with 1×DPBS with calcium and magnesium warmed to 37° C. Cells were frozen directly on the plates on a bed of dry ice for 5 min, then stored at −80° C. until protein extraction.
(§4) Protein extraction was performed in RIPA buffer (50 mM Tris-HCL pH 8.0, 150 mM NaCl, 0.5% sodium deoxycholate, 0.1% sodium dodecyl sulfate, 1% NP-40) supplemented with Pierce protease inhibitor mini tables (Thermofisher cat #A32953) exactly as described by the manufacturer. After thawing the plate on a bed of wet ice for 10 minutes, lysis buffer was added to each well (e.g. 100 μL per well of a 24-well plate) and cells scraped from the bottom of each well. Lysates were then sonicated over ice (40% power, 30 pulses of 1 second on, 2 seconds off), centrifuged at 16,000 g for 10 min at 4° C., and the clarified supernatant saved. Protein concentration was determined by BCA assay and at least 3 μg prepared per lane by combining lysate supernatant aliquot with 1/3 total volume of 3× gel loading buffer containing DTT (NEB Cat. #B7703S), heating for 5 minutes at 95° C., briefly centrifuging and then loading on an SDS-PAGE gel.
(§5) Proteins were resolved on a 4-20% Tris-Glycine gel and transferred to PVDF membrane using an iBlot2 dry transfer system. The membrane was then blocked for at least 30 minutes at room temperature in TBST containing 5% milk or 5% bovine serum albumin, then incubated overnight at 4° C. with a single primary antibody from the following table:
(§6) Following primary antibody incubation, membranes were washed, incubated in secondary antibody, washed and incubated in ECL prime western blotting detection reagent (Amersham #RPN223) with membrane exposure and ECL signal capture in a LI-COR Odyssey Imaging system. […] Subsequent densitometry of immunoreactive bands was performed using the ImageStudio software and Microsoft Excel resulting in the following ratios: acetylTubulin/Tubulin and acetyl histone H3K9/histone H3. Raw ratios were uploaded to GraphPad Prism v7.0 with EC50 values modeled using the variable slope equation for log-transformed data [log(agonist) vs response in Prism].

Series [2] has as its system histone H3 acetylation (acH3K9) in undifferentiated SH-SY5Y cells. Nature of the series: Histone H3 acetylation in cells (Western immunoblot). The series is classed as cell-based. The conditions noted are these: Homo sapiens, 4 hours, acetyl histone H3K9/histone H3 ratio. As to the method: as §1, §2, §3, §4, §5, §6
For series [3], the target named is T1, Full length Human HDAC6 (Homo sapiens, UniProt Q9UBN7).
T1 sequence (Q9UBN7 1-1215): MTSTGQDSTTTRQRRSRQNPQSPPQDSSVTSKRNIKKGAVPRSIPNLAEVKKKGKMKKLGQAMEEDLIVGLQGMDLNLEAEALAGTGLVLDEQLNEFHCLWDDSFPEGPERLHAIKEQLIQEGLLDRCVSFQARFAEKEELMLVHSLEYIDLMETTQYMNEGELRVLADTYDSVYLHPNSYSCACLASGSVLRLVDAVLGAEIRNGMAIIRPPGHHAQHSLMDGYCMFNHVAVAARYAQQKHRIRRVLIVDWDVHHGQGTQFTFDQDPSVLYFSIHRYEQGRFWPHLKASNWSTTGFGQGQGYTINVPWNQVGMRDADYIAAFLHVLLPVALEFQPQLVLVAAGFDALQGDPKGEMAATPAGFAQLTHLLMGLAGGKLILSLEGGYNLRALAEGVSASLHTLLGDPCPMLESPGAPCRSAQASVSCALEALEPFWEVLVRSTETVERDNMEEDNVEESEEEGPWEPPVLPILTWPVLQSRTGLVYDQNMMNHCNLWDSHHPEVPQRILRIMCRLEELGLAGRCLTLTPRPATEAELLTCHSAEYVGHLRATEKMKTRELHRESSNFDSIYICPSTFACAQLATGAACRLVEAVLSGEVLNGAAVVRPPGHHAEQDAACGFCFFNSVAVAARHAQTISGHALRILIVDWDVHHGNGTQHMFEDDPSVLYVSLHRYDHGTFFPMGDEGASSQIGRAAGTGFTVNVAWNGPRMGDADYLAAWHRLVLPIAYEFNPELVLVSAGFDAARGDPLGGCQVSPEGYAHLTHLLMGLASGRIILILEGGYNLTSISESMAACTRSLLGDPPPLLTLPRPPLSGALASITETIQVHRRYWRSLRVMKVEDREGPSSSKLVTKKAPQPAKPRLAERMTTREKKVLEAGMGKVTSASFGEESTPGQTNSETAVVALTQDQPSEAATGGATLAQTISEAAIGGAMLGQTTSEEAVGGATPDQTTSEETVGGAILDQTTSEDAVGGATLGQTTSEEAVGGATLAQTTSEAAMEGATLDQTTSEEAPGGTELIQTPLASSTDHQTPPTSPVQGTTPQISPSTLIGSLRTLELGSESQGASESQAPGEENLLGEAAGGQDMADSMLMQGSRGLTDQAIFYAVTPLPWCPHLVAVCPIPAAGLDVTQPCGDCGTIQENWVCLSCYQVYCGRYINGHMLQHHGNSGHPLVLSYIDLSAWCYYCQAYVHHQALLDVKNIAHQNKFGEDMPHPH
The conditions noted are these: for Selectivity (6 v 8) (fold): ratio of HDAC8 IC50/HDAC6 IC50.

Series [4] deals with T2, Full length Human HDAC8 (Homo sapiens, UniProt Q9BY41).
T2 sequence (Q9BY41 1-377): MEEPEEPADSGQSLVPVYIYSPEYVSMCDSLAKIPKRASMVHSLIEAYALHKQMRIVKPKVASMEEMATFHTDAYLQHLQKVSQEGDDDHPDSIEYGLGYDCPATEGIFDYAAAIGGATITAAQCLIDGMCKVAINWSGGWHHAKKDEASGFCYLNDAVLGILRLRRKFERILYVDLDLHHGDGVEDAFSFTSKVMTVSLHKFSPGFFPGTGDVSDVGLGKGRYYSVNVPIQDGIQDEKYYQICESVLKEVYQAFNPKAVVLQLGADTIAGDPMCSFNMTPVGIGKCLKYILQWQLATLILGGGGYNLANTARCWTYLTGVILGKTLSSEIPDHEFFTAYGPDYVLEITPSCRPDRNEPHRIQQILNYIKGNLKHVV

Series [5] can be described thus: Cell viability in primary rat dorsal root ganglia (DRG). The format is cell-based.
A short description of series [6]: Metabolic stability in liver microsomes: Mouse BL6. The series is classed as in vitro ADME. To be noted: 1 μM compound, 0.3 mg/mL protein, NADPH, 37° C., read-out: Mouse BL6 Liver Microsome Stability Half-life.
Series [7] deals with Full length Human HDAC1 (Homo sapiens, UniProt Q13547).
The target in series [8] is T3, Human HDAC7 aa 518-end (Homo sapiens, UniProt Q8WUI4).
T3 sequence (Q8WUI4 518-952 limits assumed): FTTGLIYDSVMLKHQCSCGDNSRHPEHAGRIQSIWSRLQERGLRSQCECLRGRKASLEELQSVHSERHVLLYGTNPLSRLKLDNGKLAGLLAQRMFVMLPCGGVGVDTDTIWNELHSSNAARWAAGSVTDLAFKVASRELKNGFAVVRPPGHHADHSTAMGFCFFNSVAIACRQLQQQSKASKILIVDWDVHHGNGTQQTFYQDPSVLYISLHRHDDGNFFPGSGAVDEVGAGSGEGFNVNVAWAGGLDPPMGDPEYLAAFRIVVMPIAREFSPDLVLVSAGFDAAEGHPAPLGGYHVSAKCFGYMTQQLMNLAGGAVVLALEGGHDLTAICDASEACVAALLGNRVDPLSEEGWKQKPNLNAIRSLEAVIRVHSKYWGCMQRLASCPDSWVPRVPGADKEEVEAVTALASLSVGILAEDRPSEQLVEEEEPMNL

For series [9], the target named is Human HDAC9 a.a. 604-1066 (Homo sapiens, UniProt Q9UKV0).
In series [10] the test system is SH-SY5Y, human neuroblastoma. To be noted: 30 µM.
Series [11] has as its system HEK293, human embryonic kidney. To be noted: 30 µM.

Full length Human HDAC1, sequence (Q13547 whole entry, the tested form may be a part): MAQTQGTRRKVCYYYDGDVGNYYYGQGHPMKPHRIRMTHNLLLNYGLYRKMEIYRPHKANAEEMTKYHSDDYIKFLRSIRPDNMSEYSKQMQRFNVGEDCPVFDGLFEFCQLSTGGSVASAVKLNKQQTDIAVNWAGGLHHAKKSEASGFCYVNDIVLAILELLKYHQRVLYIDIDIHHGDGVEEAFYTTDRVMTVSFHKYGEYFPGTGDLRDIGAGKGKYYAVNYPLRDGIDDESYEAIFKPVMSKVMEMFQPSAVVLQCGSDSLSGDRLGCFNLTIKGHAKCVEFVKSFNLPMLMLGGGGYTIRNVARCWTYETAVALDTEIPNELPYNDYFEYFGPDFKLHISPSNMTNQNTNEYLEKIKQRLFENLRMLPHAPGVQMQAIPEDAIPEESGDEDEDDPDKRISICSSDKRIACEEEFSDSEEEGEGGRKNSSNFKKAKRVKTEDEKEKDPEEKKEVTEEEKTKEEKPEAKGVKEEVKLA
Human HDAC9 a.a. 604-1066, sequence (Q9UKV0 604-1066 isoform Q9UKV0-5): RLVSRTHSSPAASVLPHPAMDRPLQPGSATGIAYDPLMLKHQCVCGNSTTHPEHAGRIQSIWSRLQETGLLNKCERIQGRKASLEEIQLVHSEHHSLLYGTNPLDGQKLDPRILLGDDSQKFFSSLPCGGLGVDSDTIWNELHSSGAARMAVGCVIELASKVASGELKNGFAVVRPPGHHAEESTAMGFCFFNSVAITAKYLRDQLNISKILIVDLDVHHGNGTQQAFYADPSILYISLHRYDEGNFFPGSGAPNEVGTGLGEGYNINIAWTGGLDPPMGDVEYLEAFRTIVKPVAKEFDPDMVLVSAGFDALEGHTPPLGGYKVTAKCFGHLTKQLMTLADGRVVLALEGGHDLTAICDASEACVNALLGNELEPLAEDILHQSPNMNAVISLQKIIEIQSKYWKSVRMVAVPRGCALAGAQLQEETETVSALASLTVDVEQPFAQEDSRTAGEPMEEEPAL

As for `Cn1c2c(c3ccccc31)CCN(Cc1ccc(C(=O)NO)cc1F)C2` [compound 45], the EC50 in series [1] is 1700 nM; in [2], over 10000 nM. In addition, the IC50 in [3] lay within 1 to 100 nM; in series [4], 100 to 1000 nM.
For `O=C(CCCCCCNC(=O)c1cnc(N(c2ccccc2)c2ccccc2)nc1)NO` [Ricolinostat], the CC50 at 72 h in series [5] was 5200 nM.
Take `O=C(NO)c1ccc(CN2C3CCCC2COC3)c(F)c1` [compound 52]: in series [6], the half-life at 1 μM turned out to be 4.83 h. Besides, the IC50 in series [3] lay in the range of 1 to 100 nM; in [4], 100 to 1000 nM. Besides, the “Selectivity (6 v 8) (fold)” value in series [3] (Table 1, number) is on record as 35.5 fold; in series [3] (Table 1, range class), “III (III: >10-100)”.
Turning to `C[C@@H]1C[C@H]2c3c(F)cc(C(=O)NO)cc3CCN2C1` (single isomer, unassigned) [compound 152], the IC50 in series [7] was in the range of 10000 to 100000 nM; in series [3], 1 to 100 nM; in [8] it was 100 to 1000 nM; in series [4], 1000 to 10000 nM; in series [9] it was 100 to 1000 nM.
Turning to `CN1CCc2c(c3ccccc3n2Cc2ccc(C(=O)NO)cc2)C1` [Tubastatin A], in [10], the “Cell viability (percent luminescence ± SD) SH-SY5Y 4 hrs” value was determined as 105.8 ± 15% and the “Cell viability (percent luminescence ± SD) SH-SY5Y 24 hrs” value was 117.3 ± 4.1%. The viability in series [11] is 88.9% and 55.3%.
As to `O=C(NO)c1cc(F)c2c(c1)CN1CCC[C@@H]1C2` (single isomer, unassigned) [compound 124], the IC50 is over 100000 nM in series [7]; 1 to 100 nM in [3]; 1000 to 10000 nM in series [8]; 1000 to 10000 nM in series [4]; over 100000 nM in series [9].
